According to paper PMC4893628, “Chalcone-based Selective Inhibitors of a C4 Plant Key Enzyme as Novel Potential Herbicides” (Scientific Reports, 2016):
Read-outs that look alike come from different tables or passages of the source.

Assays:
F. trinervia PEPC = target: T1, F. trinervia PEPC (Flaveria trinervia, UniProt P30694); test: biochemical; assay type: biochemical; details: for Selectivity C4/C3: C4 PEPC over C3 isoform; for IC50: C4 PEPC
T1 construct: the full-length ppcA gene of PEPC from F. trinervia (EMBL-Bank X61304); made in house; host or cells: Escherichia coli BL21(DE3)
T1 sequence (P30694 1-966): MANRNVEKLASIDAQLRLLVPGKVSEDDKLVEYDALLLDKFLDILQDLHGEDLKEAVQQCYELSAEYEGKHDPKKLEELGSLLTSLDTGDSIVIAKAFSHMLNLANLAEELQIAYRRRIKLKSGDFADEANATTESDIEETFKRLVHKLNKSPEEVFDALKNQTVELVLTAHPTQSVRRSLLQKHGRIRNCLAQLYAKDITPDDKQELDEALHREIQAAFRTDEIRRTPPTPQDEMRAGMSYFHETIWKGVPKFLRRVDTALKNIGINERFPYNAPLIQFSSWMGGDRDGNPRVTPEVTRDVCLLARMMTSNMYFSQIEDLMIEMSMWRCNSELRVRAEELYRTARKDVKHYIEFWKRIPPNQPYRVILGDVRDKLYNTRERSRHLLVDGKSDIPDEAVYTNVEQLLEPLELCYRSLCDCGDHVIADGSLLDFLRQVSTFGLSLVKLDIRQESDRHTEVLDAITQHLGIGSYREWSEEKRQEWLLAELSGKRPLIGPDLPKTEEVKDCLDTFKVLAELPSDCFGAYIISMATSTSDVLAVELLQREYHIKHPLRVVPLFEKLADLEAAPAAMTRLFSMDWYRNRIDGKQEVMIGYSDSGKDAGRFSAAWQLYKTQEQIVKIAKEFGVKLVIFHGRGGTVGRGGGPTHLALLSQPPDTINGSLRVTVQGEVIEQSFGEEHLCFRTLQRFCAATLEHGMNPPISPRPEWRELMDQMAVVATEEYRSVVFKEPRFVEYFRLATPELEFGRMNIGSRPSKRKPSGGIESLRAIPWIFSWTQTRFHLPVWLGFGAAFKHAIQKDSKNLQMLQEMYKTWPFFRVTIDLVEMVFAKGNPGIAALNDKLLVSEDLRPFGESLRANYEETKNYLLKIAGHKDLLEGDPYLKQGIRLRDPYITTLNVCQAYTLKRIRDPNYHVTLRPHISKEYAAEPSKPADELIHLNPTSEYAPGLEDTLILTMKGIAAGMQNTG

Bacillus subtilis 168 = test: Bacterial growth in microscale cultivation, B. subtilis; assay type: cell-based; details: relative to control
Procedure, shortened: (§1)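 Inhibitors in DMSO were added to the medium, at a maximum of 400 μM for trans-chalcone and 100 μM for 2'-hydroxychalcone. Cultures were seeded at OD600 0.5, or 0.25 for B. subtilis, and growth was followed as 620 nm backscatter in a BioLector at 1200 rpm. Final backscatter, growth rate and lag phase were compared with DMSO controls.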

[1] = tested on: Escherichia coli K-12 MG1655; test: Bacterial growth in microscale cultivation, E. coli; assay type: cell-based; details: relative to control; for activity at 4 µM / activity at 40 µM / activity at 400 µM: Escherichia coli
Procedure, shortened: as §1

[2] = tested on: Pseudomonas putida KT2440; test: Bacterial growth in microscale cultivation, P. putida; assay type: cell-based; details: relative to control; for activity at 4 µM / activity at 40 µM / activity at 400 µM: Pseudomonas putida
Procedure, shortened: as §1

[3] = Bacillus subtilis, 168, complex medium, 4 µM, read-out: Final Backscatter
[4] = Bacillus subtilis, 168, complex medium, 4 µM, read-out: Growth rate
[5] = Bacillus subtilis, 168, complex medium, 40 µM, read-out: Final Backscatter
[6] = Bacillus subtilis, 168, complex medium, 40 µM, read-out: Growth rate
[7] = Bacillus subtilis, 168, complex medium, 400 µM, read-out: Final Backscatter
[8] = Bacillus subtilis, 168, complex medium, 400 µM, read-out: Growth rate
[9] = Bacillus subtilis, 168, minimal medium, 4 µM, read-out: Final Backscatter
[10] = Bacillus subtilis, 168, minimal medium, 4 µM, read-out: Growth rate
[11] = Bacillus subtilis, 168, minimal medium, 40 µM, read-out: Final Backscatter
[12] = Bacillus subtilis, 168, minimal medium, 40 µM, read-out: Growth rate
[13] = Bacillus subtilis, 168, minimal medium, 400 µM, read-out: Final Backscatter
[14] = Bacillus subtilis, 168, minimal medium, 400 µM, read-out: Growth rate
[15] = MG1655, complex medium, 4 µM, read-out: Final Backscatter
[16] = MG1655, complex medium, 4 µM, read-out: Growth rate
[17] = MG1655, complex medium, 40 µM, read-out: Final Backscatter
[18] = MG1655, complex medium, 40 µM, read-out: Growth rate
[19] = MG1655, complex medium, 400 µM, read-out: Final Backscatter
[20] = MG1655, complex medium, 400 µM, read-out: Growth rate
[21] = MG1655, minimal medium, 4 µM, read-out: Final Backscatter
[22] = MG1655, minimal medium, 4 µM, read-out: Growth rate
[23] = MG1655, minimal medium, 40 µM, read-out: Final Backscatter
[24] = MG1655, minimal medium, 40 µM, read-out: Growth rate
[25] = MG1655, minimal medium, 400 µM, read-out: Final Backscatter
[26] = MG1655, minimal medium, 400 µM, read-out: Growth rate
[27] = KT2440, complex medium, 4 µM, read-out: Final Backscatter
[28] = KT2440, complex medium, 4 µM, read-out: Growth rate
[29] = KT2440, complex medium, 40 µM, read-out: Final Backscatter
[30] = KT2440, complex medium, 40 µM, read-out: Growth rate
[31] = KT2440, complex medium, 400 µM, read-out: Final Backscatter
[32] = KT2440, complex medium, 400 µM, read-out: Growth rate
[33] = KT2440, minimal medium, 4 µM, read-out: Final Backscatter
[34] = KT2440, minimal medium, 4 µM, read-out: Growth rate
[35] = KT2440, minimal medium, 40 µM, read-out: Final Backscatter
[36] = KT2440, minimal medium, 40 µM, read-out: Growth rate
[37] = KT2440, minimal medium, 400 µM, read-out: Final Backscatter
[38] = KT2440, minimal medium, 400 µM, read-out: Growth rate

O=C(/C=C/c1ccc(O)cc1)c1ccc(O)cc1O [Compound 6, 2′,4′,4-Trihydroxychalcone]
Selectivity C4/C3 (F. trinervia PEPC): 1.5 fold
IC50 (F. trinervia PEPC; IC50 F. trinervia PEPC): 38.2 ± 10.9 µM
activity at 4 µM (Bacillus subtilis 168; [3]): 97.3%
activity at 4 µM (Bacillus subtilis 168; [4]): 107%
activity at 40 µM (Bacillus subtilis 168; [5]): 99.9%
activity at 40 µM (Bacillus subtilis 168; [6]): 107%
activity at 400 µM (Bacillus subtilis 168; [7]): 91.1%
activity at 400 µM (Bacillus subtilis 168; [8]): 109%
activity at 4 µM (Bacillus subtilis 168; [9]): 100%
activity at 4 µM (Bacillus subtilis 168; [10]): 103%
activity at 40 µM (Bacillus subtilis 168; [11]): 99.7%
activity at 40 µM (Bacillus subtilis 168; [12]): 99%
activity at 400 µM (Bacillus subtilis 168; [13]): 101%
activity at 400 µM (Bacillus subtilis 168; [14]): 88.2%
Lag Phase (Bacillus subtilis 168; complex medium, 4 µM): 100,0%
Lag Phase (Bacillus subtilis 168; complex medium, 40 µM): 102,6%
Lag Phase (Bacillus subtilis 168; complex medium, 400 µM): 128,1%
Lag Phase (Bacillus subtilis 168; minimal medium, 4 µM): 98,9%
Lag Phase (Bacillus subtilis 168; minimal medium, 40 µM): 102,2%
Lag Phase (Bacillus subtilis 168; minimal medium, 400 µM): 116,3%
activity at 4 µM [1, 15]: 98.8%
activity at 4 µM [1, 16]: 96%
activity at 40 µM [1, 17]: 99.5%
activity at 40 µM [1, 18]: 99.1%
activity at 400 µM [1, 19]: 95%
activity at 400 µM [1, 20]: 89.8%
activity at 4 µM [1, 21]: 100%
activity at 4 µM [1, 22]: 101%
activity at 40 µM [1, 23]: 98.8%
activity at 40 µM [1, 24]: 107%
activity at 400 µM [1, 25]: 97.7%
activity at 400 µM [1, 26]: 96.4%
Lag Phase ([1]; complex medium, 4 µM): 100,0%
Lag Phase ([1]; complex medium, 40 µM): 100,0%
Lag Phase ([1]; complex medium, 400 µM): 107,4%
Lag Phase ([1]; minimal medium, 4 µM): 101,8%
Lag Phase ([1]; minimal medium, 40 µM): 103,5%
Lag Phase ([1]; minimal medium, 400 µM): 101,8%
activity at 4 µM [2, 27]: 97.7%
activity at 4 µM [2, 28]: 104%
activity at 40 µM [2, 29]: 97.2%
activity at 40 µM [2, 30]: 106%
activity at 400 µM [2, 31]: 99.9%
activity at 400 µM [2, 32]: 100%
activity at 4 µM [2, 33]: 99%
activity at 4 µM [2, 34]: 104%
activity at 40 µM [2, 35]: 103%
activity at 40 µM [2, 36]: 106%
activity at 400 µM [2, 37]: 117%
activity at 400 µM [2, 38]: 104%
Lag Phase ([2]; complex medium, 4 µM): 99,4%
Lag Phase ([2]; complex medium, 40 µM): 101,7%
Lag Phase ([2]; complex medium, 400 µM): 107,3%
Lag Phase ([2]; minimal medium, 4 µM): 103,3%
Lag Phase ([2]; minimal medium, 40 µM): 105,6%
Lag Phase ([2]; minimal medium, 400 µM): 107,8%

O=C(/C=C/c1ccccc1O)c1ccc(O)cc1O [Compound 7, 2′,4′,2-Trihydroxychalcone]
Selectivity C4/C3 (F. trinervia PEPC): 2.3 fold
IC50 (F. trinervia PEPC; read-out: IC50 F. trinervia PEPC): 28.2 ± 2.2 µM
activity at 4 µM (Bacillus subtilis 168; [3]): 99.9%
activity at 4 µM (Bacillus subtilis 168; [4]): 95.9%
activity at 40 µM (Bacillus subtilis 168; [5]): 102%
activity at 40 µM (Bacillus subtilis 168; [6]): 104%
activity at 400 µM (Bacillus subtilis 168; [7]): 98.3%
activity at 400 µM (Bacillus subtilis 168; [8]): 92.5%
activity at 4 µM (Bacillus subtilis 168; [9]): 98.8%
activity at 4 µM (Bacillus subtilis 168; [10]): 107%
activity at 40 µM (Bacillus subtilis 168; [11]): 98.5%
activity at 40 µM (Bacillus subtilis 168; [12]): 107%
activity at 400 µM (Bacillus subtilis 168; [13]): 95.3%
activity at 400 µM (Bacillus subtilis 168; [14]): 70.4%
Lag Phase (Bacillus subtilis 168; complex medium, 4 µM): 100,0%
Lag Phase (Bacillus subtilis 168; complex medium, 40 µM): 107,1%
Lag Phase (Bacillus subtilis 168; complex medium, 400 µM): 185,2%
Lag Phase (Bacillus subtilis 168; minimal medium, 4 µM): 104,9%
Lag Phase (Bacillus subtilis 168; minimal medium, 40 µM): 106,1%
Lag Phase (Bacillus subtilis 168; minimal medium, 400 µM): 143,2%
activity at 4 µM [1, 15]: 97.2%
activity at 4 µM [1, 16]: 93.3%
activity at 40 µM [1, 17]: 97.3%
activity at 40 µM [1, 18]: 90.7%
activity at 400 µM [1, 19]: 93%
activity at 400 µM [1, 20]: 104%
activity at 4 µM [1, 21]: 98.2%
activity at 4 µM [1, 22]: 99.2%
activity at 40 µM [1, 23]: 97.2%
activity at 40 µM [1, 24]: 105%
activity at 400 µM [1, 25]: 97.4%
activity at 400 µM [1, 26]: 103%
Lag Phase ([1]; complex medium, 4 µM): 107,4%
Lag Phase ([1]; complex medium, 40 µM): 111,1%
Lag Phase ([1]; complex medium, 400 µM): 118,5%
Lag Phase ([1]; minimal medium, 4 µM): 88,9%
Lag Phase ([1]; minimal medium, 40 µM): 99,0%
Lag Phase ([1]; minimal medium, 400 µM): 99,3%
activity at 4 µM [2, 27]: 99.1%
activity at 4 µM [2, 28]: 100%
activity at 40 µM [2, 29]: 95.3%
activity at 40 µM [2, 30]: 101%
activity at 400 µM [2, 31]: 99.9%
activity at 400 µM [2, 32]: 99.6%
activity at 4 µM [2, 33]: 101%
activity at 4 µM [2, 34]: 98.3%
activity at 40 µM [2, 35]: 100%
activity at 40 µM [2, 36]: 94.3%
activity at 400 µM [2, 37]: 99.8%
activity at 400 µM [2, 38]: 106%
Lag Phase ([2]; complex medium, 4 µM): 100,0%
Lag Phase ([2]; complex medium, 40 µM): 100,0%
Lag Phase ([2]; complex medium, 400 µM): 100,0%
Lag Phase ([2]; minimal medium, 4 µM): 111,6%
Lag Phase ([2]; minimal medium, 40 µM): 101,6%
Lag Phase ([2]; minimal medium, 400 µM): 95,6%
